The source of these data is patent US6995159B2, “5-HT receptor ligands and uses thereof” (Pfizer Inc., priority 2001, dated 2006).

Structures can show the parent of a compound that is named as a salt.

One assay concerns 5-HT2c receptor. The assay is described as follows: Functional assay (FLIPR calcium, Fluo 4-AM) in 5-HT2c expressed cells. Type of assay: cell-based. As to conditions: 5-HT2c expressed NIH 3T3 cells. How it is done:
(§1) Swiss 3T3 cells expressing r-5HT2C, r-5HT2A, h-5HT2C or h-5HT2A receptors are seeded at a density of 12,500 cells/well in 384 well black/clear collagen-coated plates. Forty eight (48) hrs later the cells are loaded with the calcium sensitive dye, Fluo 4-AM (4 μM dissolved in DMSO containing pluronic acid) in serum free DMEM in the presence of probenicid (2.5 mM) for 75 minutes at 37° C. in a CO2 incubator. Unincorporated dye is removed by washing 3 times with a HEPES-buffered saline containing probenicid (2.5 mM) using a Skatron™ cell washer (final volume 30 μL).
(§2) Plates are added to a fluorometric imaging plate reader (FLIPR 384 available from Molecular Devices Corporation) individually and fluorescence measurements are taken every 2 seconds over an 85 seconds period. Test compound additions are made simultaneously to all 384 wells after 20 seconds of baseline recording. Concentration-response curves are generated using Graphpad Prism™ (available from GraphPad Software, Inc., San Diego, Calif.) and agonist efficacies are generated as % of the response to 10 μM 5-HT (considered as 100%). Estimation of antagonist potencies (functional Kis) are generated by measuring inhibition of the test compound response to 5-HT (10 nM for 5-HT2C and 50 nM for 5-HT2A) and applying the Cheng Prusoff equation.
The functional data for the compounds listed in the Examples above utilizing the 5-HT2c expressed NIH 3T3 cells is summarized below.
In the case of `Clc1ccc(COc2ccnc(N3CCNCC3)n2)cc1Cl` [Example 2-F, 4-(3,4-Dichloro-benzyloxy)-2-piperazin-1-yl-pyrimidine], the “functional mode at 5-HT2c (partial agonist / full antagonist)” value is “full antagonists”.
On the same count and under the same terms, then `Fc1ccc(C(F)(F)F)c(COc2nccc(N3CCNCC3)n2)c1` [Example 1-PP, 2-(5-Fluoro-2-trifluoromethyl-benzyloxy)-4-piperazin-1-yl-pyrimidine], with “full antagonists”.

The assay is the same for the next values; noted with them: at 10 μM; 5-HT2c expressed NIH 3T3 cells.
In the case of `CC(Oc1ccnc(N2CCNCC2)n1)c1ccc(Cl)cc1` (stereo not shown) [Example 2-D, 4-[1-(4-Chloro-phenyl)-ethoxy]-2-piperazin-1-yl-pyrimidine], the 5-HT2c functional activity result is listed as “no 5-HT2c functional activity”.
Still for that read-out and setting: then `FC(F)(F)c1cc(COc2nccc(N3CCNCC3)n2)cc(C(F)(F)F)c1` [Example 1-QQ, 2-(3,5-Bis-trifluoromethyl-benzyloxy)-4-piperazin-1-yl-pyrimidine], with “no 5-HT2c functional activity”.
On the same count and under the same terms, then `Cc1ccc(COc2ccnc(N3CCNCC3)n2)cc1C.Cl` [Example 2-H, 4-(3,4-Dimethyl-benzyloxy)-2-piperazin-1-yl-pyrimidine, hydrochloride], with “no 5-HT2c functional activity”.

Another assay concerns 5-HT2a receptor. The assay can be described thus: Functional assay (FLIPR calcium, Fluo 4-AM) in 5-HT2a expressed cells. As to conditions: 5-HT2a expressed NIH 3T3 cells. Type of assay: cell-based. How it is done:
as §1, §2
The functional data for the compounds listed in the Examples above utilizing the 5-HT2a expressed NIH 3T3 cells is summarized below.
Turning to `Clc1ccc(COc2ccnc(N3CCNCC3)n2)cc1Cl` [Example 2-F, 4-(3,4-Dichloro-benzyloxy)-2-piperazin-1-yl-pyrimidine], the “functional mode at 5-HT2a (partial agonist / full antagonist)” value is listed as “full antagonists”.
Still for that read-out and setting: then `Cl.Clc1cccc(Cl)c1COc1nccc(N2CCNCC2)n1` [Example 1-FF, 2-(2,6-Dichloro-benzyloxy)-4-piperazin-1-yl-pyrimidine, hydrochloride], with “full antagonists”; and `Cl.Clc1cc(Cl)cc(COc2nccc(N3CCNCC3)n2)c1` [Example 1-HH, 2-(3,5-Dichloro-benzyloxy)-4-piperazin-1-yl-pyrimidine, hydrochloride], with “full antagonists”; and `Fc1ccc(COc2nccc(N3CCNCC3)n2)cc1F` [Example 1-U, 2-(3,4-Difluoro-benzyloxy)-4-piperazin-1-yl-pyrimidine], with “full antagonists”.
Same read-out and setting: then `Clc1cccc(COc2nccc(N3CCNCC3)n2)n1` [Example 5-A, 2-(6-Chloro-pyrdin-2-ylmethoxy)-4-piperazin-1-yl-pyrimidine, hydrochloride], with “full antagonists”; and `Cl.FC(F)(F)Oc1ccccc1COc1nccc(N2CCNCC2)n1` [Example 1-II, 4-Piperazin-1-yl-2-(2-trifluoromethoxy-benzyloxy)-pyrimidine, hydrochloride], with “full antagonists”.
As for `COc1cccc(COc2nc(C)cc(N3CCNCC3)n2)c1` [Example 1-AL, 2-(3-Methoxy-benzyloxy)-4-methyl-6-piperazin-1-yl-pyrimidine], the “functional mode at 5-HT2a (partial agonist / full antagonist)” value is recorded as “full antagonists”.
The same measure, in the same setting: the entry for `Cl.c1ccc(CNc2nccc(N3CCNCC3)n2)cc1` [Example 3-D, Benzyl-(4-piperazin-1-yl-pyrimidin-2-yl)-amine, hydrochloride] is “full antagonists”.
Turning to `C[C@H]1CNCCN1c1ccnc(OCc2cc(Cl)ccc2Cl)n1` [Example 1-VV, 2-(2,5-Dichloro-benzyloxy)-4-[(2S)-methyl-piperazin-1-yl]-pyrimidine], the “functional mode at 5-HT2a (partial agonist / full antagonist)” value is “full antagonists”.
Still for that read-out and setting: the entry for `Fc1ccc(COc2ccnc(N3CCNCC3)n2)cc1F` [Example 2-G, 4-(3,4-Difluoro-benzyloxy)-2-piperazin-1-yl-pyrimidine] is “full antagonists”; for `Cl.Clc1cccc(CNc2ccnc(N3CCNCC3)n2)c1` [Example 4-A, (3-Chloro-benzyl)-(2-piperazin-1-yl-pyrimidin-4-yl)-amine, hydrochloride] it is “full antagonists”.
The same measure, in the same setting: the entry for `C[C@H]1CNCCN1c1ccnc(OCc2cc(F)ccc2F)n1` [Example 1-WW, 2-(2,5-Difluoro-benzyloxy)-4-[(2S)-methyl-piperazin-1-yl]-pyrimidine] is “full antagonists”; for `Fc1cc(COc2nccc(N3CCNCC3)n2)cc(F)c1F` [Example 1-YY, 4-Piperazin-1-yl-2-(3,4,5-trifluoro-benzyloxy)-pyrimidine] it is “full antagonists”.
As to `C[C@@H]1CN(c2ccnc(OCc3cccc(Cl)c3)n2)CCN1` [Example 1-MM, 2-(3-Chloro-benzyloxy)-4-[(3R)-methyl-piperazin-1-yl]pyrimidine], the “functional mode at 5-HT2a (partial agonist / full antagonist)” value is “full antagonists”.
Same read-out and setting: the entry for `Clc1ccc(COc2nccc(N3CCNCC3)n2)cc1Cl` [Example 1-S, 2-(3,4-Dichloro-benzyloxy)-4-piperazin-1-yl-pyrimidine] is “full antagonists”.
Still for that read-out and setting: then `Cl.Fc1cccc(CNc2ccnc(N3CCNCC3)n2)c1` [Example 4-B, (3-Fluoro-benzyl)-(2-piperazin-1-yl-pyrimidin-4-yl)-amine, hydrochloride], with “full antagonists”.
Still for that read-out and setting: the entry for `Fc1ccc(COc2ccnc(N3CCNCC3)n2)cc1` [Example 2-E, 4-(4-Fluoro-benzyloxy)-2-piperazin-1-yl-pyrimidine] is “full antagonists”; for `Fc1cccc(COc2ccnc(N3CCNCC3)n2)c1F.O=C(O)C(F)(F)F` [Example 2-I, 4-(2,3-Difluoro-benzyloxy)-2-piperazin-1-yl-pyrimidine, trifluoroacetate] it is “full antagonists”.
On to `Cc1ccc(COc2ccnc(N3CCNCC3)n2)cc1C.Cl` [Example 2-H, 4-(3,4-Dimethyl-benzyloxy)-2-piperazin-1-yl-pyrimidine, hydrochloride], for which the “functional mode at 5-HT2a (partial agonist / full antagonist)” value is “full antagonists”.
The same measure, in the same setting: then `Fc1cccc(CNc2ccnc(N3CCNCC3)n2)c1.O=C(O)/C=C/C(=O)O` [Example 4-C, (3-Fluoro-benzyl)-(2-piperazin-1-yl-pyrimidin-4-yl)-amine, fumarate], with “full antagonists”; and `Cl.Fc1cccc(COc2nccc(N3CCNCC3)n2)c1F` [Example 1-Y, 2-(2,3-Difluoro-benzyloxy)-4-piperazin-1-yl-pyrimidine, hydrochloride], with “full antagonists”.
Still for that read-out and setting: then `Fc1ccc(C(F)(F)F)c(COc2nccc(N3CCNCC3)n2)c1` [Example 1-PP, 2-(5-Fluoro-2-trifluoromethyl-benzyloxy)-4-piperazin-1-yl-pyrimidine], with “full antagonists”.
Same read-out and setting: the entry for `Cl.c1ccc(CNc2ccnc(N3CCNCC3)n2)cc1` [Example 4-D, Benzyl-(2-piperazin-1-yl-pyrimidin-4-yl)-amine, hydrochloride] is “full antagonists”; for `Cl.Clc1cccc(COc2nccc(N3CCNCC3)n2)c1Cl` [Example 1-GG, 2-(2,3-Dichloro-benzyloxy)-4-piperazin-1-yl-pyrimidine, hydrochloride] it is “full antagonists”.

Still in this assay, the particulars now being: at 10 μM; 5-HT2a expressed NIH 3T3 cells.
For `COc1cccc(COc2nc(C)cc(N3CCNCC3)n2)c1` [Example 1-AL, 2-(3-Methoxy-benzyloxy)-4-methyl-6-piperazin-1-yl-pyrimidine], the 5-HT2a functional activity entry is recorded as “no functional activity”.
On the same count and under the same terms, then `Cc1cc(N2CCNCC2)nc(OCc2cccc(Oc3ccccc3)c2)n1` [Example 1-D, 4-Methyl-2-(3-phenoxy-benzyloxy)-6-piperazin-1-yl-pyrimidine], with “no functional activity”; and `Cc1cc(N2CCNCC2)nc(OCc2cccc(OC(F)(F)F)c2)n1` [Example 1-F, 4-Methyl-6-piperazin-1-yl-2-(3-trifluoromethoxy-benzyloxy)-pyrimidine], with “no functional activity”; and `C[C@H](Oc1nccc(N2CCNCC2)n1)c1ccccc1` [Example 1-AG, 2-[(1S)-Phenyl-ethoxy]-4-piperazin-1-yl-pyrimidine], with “no functional activity”.
Regarding `FC(F)(F)c1cc(COc2nccc(N3CCNCC3)n2)cc(C(F)(F)F)c1` [Example 1-QQ, 2-(3,5-Bis-trifluoromethyl-benzyloxy)-4-piperazin-1-yl-pyrimidine], the 5-HT2a functional activity result is “no functional activity”.
